Assay results: patent US10052330B2, “Substituted pyrido[3,4-b]pyrazines as Syk inhibitors” (HUTCHISON MEDIPHARMA LIMITED, priority 2011, dated 2018)
Where two headings read alike, the source gives them in different places.

Columns and labels:
[1] = target: Syk kinase (Homo sapiens, UniProt P43405); assay: Syk kinase enzymatic assay (Kit-Tyr 2 Peptide); type: biochemical; conditions: 8 concentrations, 1 μM down to 0.0003 μM; upper bound of each range is 'less than'; read-out: IC50: Enzymatic Activity (Syk kinase)
[2] = system: RBL-2H3 cells; assay: IgE-induced Beta-hexosaminidase secretion in RBL-2H3 cells; type: cell-based; conditions: Rattus norvegicus, upper bound of each range is 'less than', read-out: IC50, IgE-induced Beta-hexosaminidase secretion
[3] = RBL-2H3, RBL-2H3 cells sensitized with SPE-7, stimulated with DNP-BSA
[4] = RBL-2H3 cells sensitized with SPE-7, stimulated with DNP-BSA

| SMILES | IC50 [1] [nM] | IC50 [2, 3] [nM] | IC50 [2, 4] [nM] |
| --- | --- | --- | --- |
| CCS(=O)(=O)N1CCN(c2ccc(-c3cc4nccnc4c(NC[C@@H]4CNCCO4)n3)cc2)CC1 [Compound 435] | 1 to 100 | 1 to 100 |  |
| CC(C)(F)C(=O)N1CCN(c2ccc(-c3cc4nccnc4c(NC[C@@H]4CNCCO4)n3)cc2)CC1 [Compound 437] | 1 to 100 | 1 to 100 |  |
| CC(F)(F)C(=O)N1CCN(c2ccc(-c3cc4nccnc4c(NC[C@@H]4CNCCO4)n3)cc2)CC1 [Compound 438] | 1 to 100 | 1 to 100 |  |
| O=C(C1CC1(F)F)N1CCN(c2ccc(-c3cc4nccnc4c(NC[C@@H]4CNCCO4)n3)cc2)CC1 (stereo partly shown) [Compound 439] | 1 to 100 | 1 to 100 |  |
| CS(=O)(=O)N1CCN(c2ccc(-c3cc4nccnc4c(NC[C@@H]4CNCCO4)n3)cn2)CC1 [Compound 440] | 1 to 100 | 100 to 1000 |  |
| CCS(=O)(=O)N1CCN(c2ccc(-c3cc4nccnc4c(NC[C@@H]4CNCCO4)n3)cn2)CC1 [Compound 441] | 1 to 100 | 100 to 1000 |  |
| CS(=O)(=O)N1CCN(c2ccc(-c3cc4nccnc4c(NCC4CNCCC4(F)F)n3)cn2)CC1 (stereo not shown) [Compound 442] | 1 to 100 | 1 to 100 |  |
| CCS(=O)(=O)N1CCN(c2ccc(-c3cc4nccnc4c(NCC4CNCCC4(F)F)n3)cn2)CC1 (stereo not shown) [Compound 443] | 1 to 100 | 1 to 100 |  |
| CS(=O)(=O)N1CCN(c2ccc(-c3cc4nccnc4c(NCC4CNCCC4(F)F)n3)cc2)CC1 (stereo not shown) [Compound 444] | 1 to 100 | 1 to 100 |  |
| CCS(=O)(=O)N1CCN(c2ccc(-c3cc4nccnc4c(NCC4CNCCC4(F)F)n3)cc2)CC1 (stereo not shown) [Compound 445] | 1 to 100 | 1 to 100 |  |
| CS(=O)(=O)N1CCC(c2ccc(-c3cc4nccnc4c(NCC4CNCCC4(F)F)n3)cc2)CC1 (stereo not shown) [Compound 447] | 1 to 100 | 1 to 100 |  |
| CN1CCN(c2ccc(-c3cc4nccnc4c(NC[C@@H]4CN(C(=O)C(F)F)CCO4)n3)cc2)CC1 [Compound 449, (R)-2,2-difluoro-1-(2-((7-(4-(4-methylpiperazin-1-yl)phenyl)pyrido[4,3-b]pyrazin-5-ylamino)methyl)morpholino)ethanone] | 1 to 100 | 1 to 100 |  |
| Cc1cc(-c2cc3nccnc3c(NC[C@@H]3CN(C(=O)C(F)F)CCO3)n2)ccc1N1CCOCC1 [Compound 450] | 1 to 100 | 1 to 100 |  |
| O=C(C(F)F)N1CCO[C@H](CNc2nc(-c3ccc(N4CCOCC4)c(F)c3)cc3nccnc23)C1 [Compound 451] | 1 to 100 | 1 to 100 |  |
| CN(C)c1ccc(-c2cc3nccnc3c(NC[C@@H]3CN(C(=O)C(F)F)CCO3)n2)cc1 [Compound 455] | 1 to 100 | 1 to 100 |  |
| CN(C)c1ccc(-c2cc3nccnc3c(NC[C@@H]3CN(C(=O)C(F)F)CCO3)n2)cc1F [Compound 456] | 1 to 100 | 1 to 100 |  |
| O=C(C(F)F)N1CCO[C@H](CNc2nc(-c3ccc(C4CCNCC4)cc3)cc3nccnc23)C1 [Compound 458] | 1 to 100 | 100 to 1000 |  |
| CC(=O)N1CCN(c2ccc(-c3cc4nccnc4c(NC[C@H]4CN(C(=O)C(F)F)CCO4)n3)cc2)CC1 [Compound 466, (S)-1-(2-((7-(4-phenylpiperazin-1-yl)ethanone[4,3-b]pyrazin-5-ylamino)methyl)morpholino)-2,2-difluoroethanone] | 1 to 100 |  | 1 to 100 |
| CS(=O)(=O)N1CCN(c2ccc(-c3cc4nccnc4c(NC[C@@H]4CN(C(=O)C(F)F)CCO4)n3)cc2)CC1 [Compound 467] | 1 to 100 | 1 to 100 |  |

| SMILES | IC50 [1] [nM] | IC50 [2, 3] [nM] | IC50 [2, 4] [nM] |
| --- | --- | --- | --- |
| CNc1ccc(-c2cc3nccnc3c(NC[C@@H]3CNCCO3)n2)cc1C#N [Compound 473] | 1 to 100 | 1 to 100 |  |
| CN(C)c1ccc(-c2cc3nccnc3c(NC[C@@H]3CNCCO3)n2)cc1C#N [Compound 474] | 1 to 100 | 1 to 100 |  |
| OCCCOc1ccc(-c2cc3nccnc3c(NC[C@@H]3CNCCO3)n2)cc1 [Compound 476, (S)-3-(4-(5-(morpholin-2-ylmethylamino)pyrido[4,3-b]pyrazin-7-yl)phenoxy)propan-1-ol] | 1 to 100 | 1 to 100 |  |
| CC(=O)OCCCOc1ccc(-c2cc3nccnc3c(NC[C@@H]3CNCCO3)n2)cc1 [Compound 477, (S)-3-(4-(5-(morpholin-2-ylmethylamino)pyrido[4,3-b]pyrazin-7-yl)phenoxy)propyl acetate] | 100 to 1000 | 1 to 100 |  |
| CCN1CCC(c2ccc(-c3cc4nccnc4c(NC[C@@H]4CN(S(C)(=O)=O)CCO4)n3)cc2)CC1 [Compound 479, (R)-7-(4-(1-ethylpiperidin-4-yl)phenyl)-N-((4-(methylsulfonyl)morpholin-2-yl)methyl)pyrido[4,3-b]pyrazin-5-amine] | 1 to 100 |  | 1 to 100 |
| CN(CCO)c1ccc(-c2cc3nccnc3c(NCC3CNCCC3(F)F)n2)cc1 (stereo not shown) [Compound 485, 2-((4-(5-((4,4-difluoropiperidin-3-yl)methylamino)pyrido[4,3-b]pyrazin-7-yl)phenyl)(methyl)amino)ethanol] | 1 to 100 | 1 to 100 |  |
| CCN1CCN(c2ccc(-c3cc4nccnc4c(NC[C@@H]4CN(C(=O)C(F)F)CCO4)n3)cc2)CC1 [Compound 488] | 1 to 100 | 1 to 100 |  |
| O=C(C(F)F)N1CCO[C@H](CNc2nc(-c3ccc(N4CCN(CCO)CC4)cc3)cc3nccnc23)C1 [Compound 489] | 1 to 100 | 1 to 100 |  |
| O=C(C(F)F)N1CCO[C@H](CNc2nc(-c3ccc(N4CCN(CCCO)CC4)cc3)cc3nccnc23)C1 [Compound 490] | 1 to 100 | 1 to 100 |  |
| CS(=O)(=O)N1CCC(Nc2ccc(-c3cc4nccnc4c(NC[C@@H]4CNCCO4)n3)cc2)CC1 [Compound 500] | 1 to 100 | 100 to 1000 |  |
| CS(=O)(=O)N1CCCN(c2ccc(-c3cc4nccnc4c(NC[C@@H]4CNCCO4)n3)cc2)CC1 [Compound 502] | 1 to 100 | 100 to 1000 |  |
| CS(=O)(=O)N1CCN(Cc2ccc(-c3cc4nccnc4c(NC[C@@H]4CNCCO4)n3)cc2)CC1 [Compound 503] | 1 to 100 | 100 to 1000 |  |
| CCC(=O)N1CCC(c2ccc(-c3cc4nccnc4c(NC[C@@H]4CNCCO4)n3)cc2)CC1 [Compound 504] | 1 to 100 | 1 to 100 |  |
| COCC(=O)N1CCC(c2ccc(-c3cc4nccnc4c(NC[C@@H]4CNCCO4)n3)cc2)CC1 [Compound 505] | 1 to 100 | 1 to 100 |  |
| NC(=O)N1CCC(c2ccc(-c3cc4nccnc4c(NC[C@@H]4CNCCO4)n3)cc2)CC1 [Compound 506] | 1 to 100 | 100 to 1000 |  |
| CCS(=O)(=O)N1CCN(c2ccc(-c3cc4nccnc4c(NC[C@@H]4CN(C(C)=O)CCO4)n3)cc2)CC1 [Compound 510] | 1 to 100 | 100 to 1000 |  |
| O=C(CO)N1CCC(c2ccc(-c3cc4nccnc4c(NC[C@@H]4CNCCO4)n3)cc2)CC1 [Compound 511] | 1 to 100 | 1 to 100 |  |
| O=C(CCO)N1CCC(c2ccc(-c3cc4nccnc4c(NC[C@@H]4CNCCO4)n3)cc2)CC1 [Compound 512] | 1 to 100 | 100 to 1000 |  |

The next lines start with results.

| IC50 [1] [nM] | SMILES | IC50 [2, 3] [nM] | IC50 [2, 4] [nM] |
| --- | --- | --- | --- |
| 1 to 100 | CCS(=O)(=O)N1CCC(c2ccc(-c3cc4nccnc4c(NC[C@@H]4CNCCO4)n3)cc2)CC1 [Compound 446] | 1 to 100 |  |
| 1 to 100 | CN1CCC(c2ccc(-c3cc4nccnc4c(NC[C@@H]4CN(S(C)(=O)=O)CCO4)n3)cc2)CC1 [Compound 460] | 1 to 100 |  |
| 1 to 100 | CS(=O)(=O)N1CCO[C@H](CNc2nc(-c3ccc(N4CCNCC4)cc3)cc3nccnc23)C1 [Compound 462] | 100 to 1000 |  |
| 1 to 100 | CN1CCC(c2ccc(-c3cc4nccnc4c(NC[C@@H]4CN(C(=O)C(F)F)CCO4)n3)cc2)CC1 [Compound 463] | 100 to 1000 |  |
| 1 to 100 | CCN1CCC(c2ccc(-c3cc4nccnc4c(NC[C@@H]4CN(C(=O)C(F)F)CCO4)n3)cc2)CC1 [Compound 464] | 100 to 1000 |  |
| 1 to 100 | CS(=O)(=O)N1CCC(c2ccc(-c3cc4nccnc4c(NC[C@@H]4CN(C(=O)C(F)F)CCO4)n3)cc2)CC1 [Compound 465] | 1 to 100 |  |
| 1 to 100 | CC(=O)N1CCC(c2ccc(-c3cc4nccnc4c(NC[C@@H]4CN(S(C)(=O)=O)CCO4)n3)cc2)CC1 [Compound 468] | 100 to 1000 |  |
| 1 to 100 | CS(=O)(=O)N1CCC(c2ccc(-c3cc4nccnc4c(NC[C@@H]4CN(S(C)(=O)=O)CCO4)n3)cc2)CC1 [Compound 469] | 1 to 100 |  |
| 1 to 100 | CC(=O)N1CCC(c2ccc(-c3cc4nccnc4c(NC[C@@H]4CN(C(=O)C(F)F)CCO4)n3)cc2)CC1 [Compound 470] | 1 to 100 |  |
| 1 to 100 | CCN1CCN(c2ccc(-c3cc4nccnc4c(NC[C@@H]4CN(S(C)(=O)=O)CCO4)n3)cc2)CC1 [Compound 487] | 100 to 1000 |  |
| 1 to 100 | CS(=O)(=O)N1CCO[C@H](CNc2nc(-c3ccc(C4CCN(CCO)CC4)cc3)cc3nccnc23)C1 [Compound 493] | 100 to 1000 |  |
| 1 to 100 | CS(=O)(=O)N1CCO[C@H](CNc2nc(-c3ccc(C4CCN(CCCO)CC4)cc3)cc3nccnc23)C1 [Compound 494] | 100 to 1000 |  |
| 1 to 100 | O=S(=O)(C1CC1)N1CCC(c2ccc(-c3cc4nccnc4c(NC[C@@H]4CNCCO4)n3)cc2)CC1 [Compound 497] | 1 to 100 |  |
| 1 to 100 | CNS(=O)(=O)N1CCC(c2ccc(-c3cc4nccnc4c(NC[C@@H]4CNCCO4)n3)cc2)CC1 [Compound 498] | 1 to 100 |  |
| 1 to 100 | CN(C)S(=O)(=O)N1CCC(c2ccc(-c3cc4nccnc4c(NC[C@@H]4CNCCO4)n3)cc2)CC1 [Compound 499] | 1 to 100 |  |
| 1 to 100 | CS(=O)(=O)N1CCC(c2ccc(-c3cc4nccnc4c(NCC4CNC(=O)CO4)n3)cc2)CC1 (stereo not shown) [Compound 501] | 1 to 100 |  |
